Reference: patent publication US9603843B2, “Kits and methods for treating post traumatic stress disorder (PTSD) and hot flashes” (CAD MEDICAL SOLUTIONS, LLC, priority 2013, dated 2017)
Read-outs that look alike come from different tables or passages of the source.

Key:
PTSD = conditions: Navy study, ultrasound guidance, not xray guidance; cited from earlier work
[1] = cited from earlier work
patient having PTSD = conditions: patient treated with CB without and with clonidine
From the text: The procedure involved a local anesthetic mixed with clonidine delivered by a shot in the patient's neck in a procedure that is similar to an epidural given to women in labor.

peripheral nerve blocks = conditions: cited from earlier work
dogs = conditions: cited from earlier work
[2] = group 1: left SGB, 0.5% mepivacaine 1 ml

CCCN1CCCC[C@H]1C(=O)Nc1c(C)cccc1C [Ropivacaine, ropivacaine]
RCSGI versus placebo (PTSD): no difference

CCCCN1CCCCC1C(=O)Nc1c(C)cccc1C (centres unmarked) [bupivacaine]
solubility ([1]; 95 percent ethanol): freely soluble | solubility ([1]; chloroform or acetone): slightly soluble | solubility ([1]; water): soluble

Clc1cccc(Cl)c1N=C1NCCN1 [clonidine]
patient-reported result with clonidine over the local anesthetic alone (patient having PTSD): significantly more effective result | duration of analgesia and anesthesia (peripheral nerve blocks; adjunct to intermediate-acting local anesthetics for some peripheral nerve blocks): improves | side-effects (peripheral nerve blocks; doses up to 150 µg): limited

Cc1cccc(C)c1NC(=O)C1CCCCN1C (centres unmarked) [mepivacaine]
left brachial artery blood flow (BABF) after left SGB (dogs; group 1: 0.5% mepivacaine 1 ml): increased significantly | right BABF after left SGB (dogs; group 1: 0.5% mepivacaine 1 ml): decreased significantly | heart rate (HR) (dogs; [2]): no significant change | mean arterial pressure (MAP) (dogs; [2]): no significant change
